Results on 2 compounds are retold here after paper PMC2099433, “The binding site for neohesperidin dihydrochalcone at the human sweet taste receptor” (BMC Structural Biology, 2007).

SMILES strings stand for the structures. Changes are numbered by the printed parent chain. Where a SMILES comes first, the peptide text is derived from it.

In assay [1] the target is T1, hTAS1R2 + hTAS1R3 V621I^2.58 (Homo sapiens, UniProt Q7RTX0+Q8TE23, V621I).
T1 construct: expressed in transfected cells; host or cells: HEK293T cells stably expressing G16Gust44
T1 sequence (Q8TE23 20-839): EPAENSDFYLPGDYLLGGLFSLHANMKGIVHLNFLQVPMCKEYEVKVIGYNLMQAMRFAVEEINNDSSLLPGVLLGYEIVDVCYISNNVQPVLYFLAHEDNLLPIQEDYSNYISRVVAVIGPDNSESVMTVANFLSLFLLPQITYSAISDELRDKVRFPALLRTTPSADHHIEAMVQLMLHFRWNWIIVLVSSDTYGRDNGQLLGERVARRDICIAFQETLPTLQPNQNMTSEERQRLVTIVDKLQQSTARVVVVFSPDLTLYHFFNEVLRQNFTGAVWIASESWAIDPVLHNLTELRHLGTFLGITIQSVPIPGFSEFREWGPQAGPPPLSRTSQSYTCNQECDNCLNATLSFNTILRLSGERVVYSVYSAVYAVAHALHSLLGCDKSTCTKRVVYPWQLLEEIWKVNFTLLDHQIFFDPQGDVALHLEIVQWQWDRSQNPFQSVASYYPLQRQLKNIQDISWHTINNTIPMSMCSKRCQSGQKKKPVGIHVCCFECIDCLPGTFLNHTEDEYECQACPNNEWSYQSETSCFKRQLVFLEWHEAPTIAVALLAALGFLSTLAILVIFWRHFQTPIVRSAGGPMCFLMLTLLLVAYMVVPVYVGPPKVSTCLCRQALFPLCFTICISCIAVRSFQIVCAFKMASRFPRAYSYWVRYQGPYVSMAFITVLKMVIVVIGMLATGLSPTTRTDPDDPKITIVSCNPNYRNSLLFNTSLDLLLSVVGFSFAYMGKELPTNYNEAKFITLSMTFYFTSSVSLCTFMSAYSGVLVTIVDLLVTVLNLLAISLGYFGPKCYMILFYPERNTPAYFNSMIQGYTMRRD
T1 sequence (Q7RTX0 21-852 V621I): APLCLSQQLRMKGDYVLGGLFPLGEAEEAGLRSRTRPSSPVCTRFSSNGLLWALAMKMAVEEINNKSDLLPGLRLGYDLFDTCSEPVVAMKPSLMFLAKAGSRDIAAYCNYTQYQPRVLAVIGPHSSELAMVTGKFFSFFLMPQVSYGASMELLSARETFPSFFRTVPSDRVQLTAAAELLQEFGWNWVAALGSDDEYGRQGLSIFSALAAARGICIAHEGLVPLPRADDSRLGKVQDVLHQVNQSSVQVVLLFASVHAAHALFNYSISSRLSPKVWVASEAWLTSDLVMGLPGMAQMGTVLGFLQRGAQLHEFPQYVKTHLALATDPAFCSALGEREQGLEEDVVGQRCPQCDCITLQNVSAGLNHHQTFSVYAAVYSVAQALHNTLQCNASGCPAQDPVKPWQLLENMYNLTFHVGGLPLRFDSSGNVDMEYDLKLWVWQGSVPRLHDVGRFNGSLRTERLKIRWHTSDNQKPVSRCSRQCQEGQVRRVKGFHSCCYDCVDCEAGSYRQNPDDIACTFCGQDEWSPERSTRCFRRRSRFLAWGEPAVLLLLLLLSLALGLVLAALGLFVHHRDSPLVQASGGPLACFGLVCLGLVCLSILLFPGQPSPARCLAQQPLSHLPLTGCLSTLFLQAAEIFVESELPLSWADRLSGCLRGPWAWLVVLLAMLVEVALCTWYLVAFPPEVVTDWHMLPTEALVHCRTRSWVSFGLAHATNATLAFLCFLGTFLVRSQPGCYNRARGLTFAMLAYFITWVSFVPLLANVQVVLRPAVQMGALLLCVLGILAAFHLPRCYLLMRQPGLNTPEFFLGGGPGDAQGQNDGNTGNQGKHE
Kind of assay: Calcium response (FLIPR), hTAS1R3 mutant coexpressed with hTAS1R2. Type of assay: cell-based. The following applies: variant V621I^2.58; for EC50: (>) EC50 not calculable because saturation is not reached; for Emax: read-out: maximal signal (% of wt). A digest of the protocol: (§1)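 HEK293T/G16Gust44, transient transfection of HSV-tagged TAS1R2 + TAS1R3 mutants; Fluo4-AM loading 1 h at 24 h; sweet tastants in C1 solution; FLIPR Ca2+ read; ΔF/F, mock-subtracted; ≥3 independent expts in duplicate.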

Assay [2] concerns the target T2, hTAS1R2 + hTAS1R3 F730L^5.43 (Homo sapiens, UniProt Q7RTX0+Q8TE23, F730L).
T2 construct: expressed in transfected cells; host or cells: HEK293T cells stably expressing G16Gust44
T2 sequence (Q8TE23 20-839): T1 sequence (Q8TE23 20-839)
T2 sequence (Q7RTX0 21-852 F730L): T1 sequence (Q7RTX0 21-852 V621I) with I601V, F710L
Described as above. It counts as cell-based. The settings on record: variant F730L^5.43; for Emax: read-out: maximal signal (% of wt). A digest of the protocol: as §1

As to `COc1ccc(CCC(=O)c2c(O)cc(O[C@@H]3O[C@H](CO)[C@@H](O)[C@H](O)[C@H]3O[C@@H]3O[C@@H](C)[C@H](O)[C@@H](O)[C@H]3O)cc2O)cc1O` [NHDC, neohesperidin dihydrochalcone], the EC50 in assay [1] was more than 1000 µM; in assay [2] it was 900 ± 100 µM. Besides, the Emax was found to be 60 ± 14% in assay [1] and 70 ± 18% in assay [2].
On the same counts, the results for `COC(=O)[C@H](Cc1ccccc1)NC(=O)[C@@H](N)CC(=O)O` [aspartame] (HELM PEPTIDE1{D.F.[CO[*:1]]}$$$$V2.0) are 1900 ± 400 µM, 1700 ± 400 µM, 61 ± 1% and 87 ± 27%.
